EC50, IC50 and outcome data for 70 compounds are collected here from PubChem BioAssay AID179 (DTP/NCI, 2004).

pEC50, pIC50: −log10 of the molar value. Several values for one entry are separate records, joined by “and”; a condition that tells them apart may be missing. Equal entries are not always repeated. Activity calls are given as the source filed them.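 Rule for the calls: active = compounds giving half or more protection of infected cells from virus-caused growth loss, again on retest; inactive = the rest.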 Where a SMILES comes first, the peptide text is derived from it. [ ]: non-standard residue; d: D form. Phe(4-NO2) = N[CH](Cc1ccc([N+](=O)[O-])cc1)C(=O)O

This experiment deals with CEM cells HIV-1 protection, formazan growth assay. As to the kind of experiment: NCI AIDS Antiviral Assay. To be noted: for pIC50: measured here: growth of uninfected CEM cells. Put shortly: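 Protection of CEM cells against HIV-1 was scored from cell growth (soluble formazan) across five concentrations, with parallel uninfected cells. Lack of protection may reflect toxicity.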

The term pEC50 denotes the EC50 on a negative log10 scale, so that one unit is a factor of ten. Usually pIC50 stands for −log10 of the IC50, conventionally taken in molar units. Lower therefore signals a large IC50. Regarding `CC(=O)C1=C(C)N2C(=NC3=C(CCc4ccccc43)C2c2cccc(Br)c2)S1` (stereo unspecified), the pEC50 is < 3.70 and the pIC50 is 4.09. With `C/C(C=O)=C\c1cccc(F)c1`, the pEC50 was < 3.80 and the negative-log IC50 (pIC50) is < 3.80. On to `CCSC(=O)OCn1ncc2cc([N+](=O)[O-])ccc21`, for which the pEC50 was < 3.70 and the negative logarithm of the IC50 (pIC50) was 4.02.

Take `CC(NC(=O)C(Cc1ccc([N+](=O)[O-])cc1)NC(=O)C(N)CCCCN)C(=O)NC(Cc1ccc([N+](=O)[O-])cc1)C(N)=O` (stereo unspecified) (H-K[Phe(4-NO2)]A[Phe(4-NO2)]-NH2; configuration not given here): the pEC50 is < 3.70 and the pIC50 was < 3.70. For `O=C1OC(=O)C2C1C(c1ccc(Cl)cc1)N1C3C(=O)OC(=O)C3C(c3ccc(Cl)cc3)N21` (stereo unspecified), the pEC50 is < 4.54 and the pIC50 was < 4.54.

For the compound `N=C1C=C/[N+](=C\C=CCO)C([O-])=N1`, the outcome was active. Take `CCn1c(-c2ccc(C)cc2)cs/c1=N\C(P(=O)(O)O)P(=O)(O)O`: the pEC50 was < 4.30 and the negative logarithm of the IC50 (pIC50) is < 4.30. For the compound `C=CCn1c(=N)/c(=C(\N)O)s/c1=C1/SC(=S)N(c2ccc(C)cc2)C1=O`, the pEC50 is < 5.17 and the negative logarithm of the IC50 (pIC50) is < 5.17. `CC(C)(C)C1=NC(=S)SC2=NC(=O)C3(NN21)c1ccccc1-c1ccccc13`: the pEC50 was < 3.70 and the pIC50 was 4.70. Consider `O=NC1C2CCC(C2)C1N=O.[Co].[c-]1[c-][c-][cH-][c-]1` (stereo unspecified), for which the pEC50 is < 3.70 and the negative logarithm of the IC50 (pIC50) was 4.31.

On to `O=CC1=CCCN(CCc2c[nH]c3ccccc23)C1`, for which the pEC50 was < 3.71 and the pIC50 is 4.99. `COC(=O)c1ccc(CCC2=CC(=O)C(Br)=CC2=O)cc1`: the pEC50 is < 3.70 and the negative-log IC50 (pIC50) was 5.03. Take `CCC(C)[P+](c1ccccc1)(c1ccccc1)c1ccccc1` (stereo unspecified): the pEC50 was < 3.70; the pIC50 is 5.58 and 5.60. As for `CCC(C(=O)NC1CN2CCC1CC2)c1ccccc1` (stereo unspecified), the pEC50 was < 3.70 and the pIC50 was 3.76. For `CCOC(=O)c1ccc(CSc2ccc([N+](=O)[O-])cc2)cc1`, the pEC50 was < 5.20 and the pIC50 was < 5.20. With `O=C1CC2(CCc3ccccc32)C(=O)N1CN1CCN(c2ccccn2)CC1` (stereo unspecified), the pEC50 is < 4.06 and the pIC50 is 4.15.

Consider `CON(C)C(C#N)=C(C#N)C#N`, for which the pEC50 was < 3.70 and the pIC50 was < 3.70. Turning to `Cc1ccnc(NS(=O)(=O)c2ccc(NC3=CC(=O)C(=O)c4ccccc43)cc2)n1`, the outcome was inactive. As for `O=C(Nc1ccccc1)N1C(c2ccccc2)=N[C@@H](c2ccccc2)[C@@H]1c1ccccc1`, the outcome was inactive. On to `Cc1nc2[nH]c(=O)n(OS(=O)(=O)c3ccccc3)c(=O)c2s1`, for which the pEC50 is < 3.70 and the pIC50 is 4.45.

On to `CN(NC(=O)/C(=C/c1ccc2c(c1)OCO2)NC(=O)c1ccccc1)c1ccnc2cc(Cl)ccc12`, for which the pEC50 is < 3.70 and the pIC50 is 4.98. Turning to `COc1ccc(/C=C2/NC(=S)N=C2Cl)cc1`, the pEC50 was < 3.70 and the pIC50 is < 3.70. In the case of `COc1ccc(-n2[nH]c(=O)n(C)c2=O)cc1`, the pEC50 is < 3.70 and the negative logarithm of the IC50 (pIC50) was < 3.70.

`N#CCc1nc(-c2cc3ccccc3oc2=O)cs1`: the pEC50 is < 3.70 and the negative-log IC50 (pIC50) was 4.42. Consider `N#Cc1nc(CCCCCN2C(=O)c3ccccc3C2=O)oc1N`, for which the pEC50 was < 3.70 and the pIC50 was < 3.70. Regarding `CC(=O)/C=c1\[nH]/c(=C\C=C\c2ccccc2)c(=O)n1/C=C1\C(=O)Oc2ccccc2C1=O`, the pEC50 is < 3.70 and the pIC50 is 3.78.

On to `O=C(CC(=O)Nc1ccccc1)NNC(c1cc(N=Nc2ccc(Br)cc2)ccc1O)P(O)O` (stereo unspecified), for which the pEC50 is < 4.00 and the pIC50 was 5.40. With `O=C(Cn1c2c(c3ccccc31)CCCC2)N1CCCC1`, the pEC50 is < 3.70 and the negative logarithm of the IC50 (pIC50) is < 3.70. As to `CC1(C)CNC[C@@](C)(O)C(=O)NC(C)(C)CNC[C@@](C)(O)C(=O)N1`, the pEC50 is < 3.70 and the pIC50 was < 3.70.

Consider `N=C(N)n1ncc(Cl)c(Cl)c1=O`, for which the pEC50 was < 4.04 and the pIC50 is 6.39.

`COc1ccc2c(c1)CCCN1CCc3cc(OC)c(OC)cc3C21` (stereo unspecified): the pEC50 is < 3.70 and the negative-log IC50 (pIC50) is < 3.70. Turning to `Cc1ccc(/C=C2\N=C(N3CCCCC3)NC2=O)cc1`, the pEC50 is < 3.70 and the pIC50 is 3.72. As for `O=C(O)c1cc(C(=CCCBr)c2cc(Cl)c(O)c(C(=O)O)c2)cc(Cl)c1O`, the pEC50 is 3.93 and the pIC50 was 3.66. Take `COc1ccc2nc3cc(Cl)ccc3c(Nc3ccc(C(=O)O)c(O)c3)c2c1`: the pEC50 is < 4.22 and the pIC50 is < 4.22. In the case of `COc1ccc(OC)c(CCCC(=O)O)c1`, the pEC50 was 7.20 and the pIC50 was < 3.70. In the same order, the values of `C(=C\CSc1ccccc1)/CSc1ccccc1` are < 4.86 and < 4.86. Regarding `CCCCCCCCCCCCCCCCP(=O)(O)OP(=O)(O)OCC1OC(n2cnc3c(N)ncnc32)C(O)C1O` (stereo unspecified), the pEC50 was < 4.00 and the negative logarithm of the IC50 (pIC50) is 4.71.

For the compound `O=[N+]([O-])/C(Cl)=C(/C(Cl)=C(Cl)Cl)N1CCOCC1`, the pEC50 was < 3.70 and the pIC50 is 5.06. On the same counts, the results for `O=[N+]([O-])c1cc(NN=C(c2ccccc2)c2ccccc2)cc([N+](=O)[O-])c1` are < 5.40 and < 5.40. Consider `Cc1cc(C)cc(NC(N)=S)c1`, for which the pEC50 was < 3.00 and the negative logarithm of the IC50 (pIC50) is < 3.00.

Take `CCOC(=O)CC(=O)CSc1c(-c2ccccc2)c(=O)n(-c2ccccc2)c(=S)n1-c1ccccc1`: the pEC50 was < 3.70 and the pIC50 was 4.14. As to `Nc1ncnc2c1ncn2[C@@H]1C[C@@H]1CO`, the pEC50 was < 3.70 and the pIC50 was < 3.70. Regarding `O=c1[nH]c2c(O)cccc2c2cc3c(c(O)c12)OCO3`, the result was inactive. As for `CCC(C)C(NC(=O)CNC(=O)C(Cc1cnc[nH]1)NC(=O)C(NC(=O)C(CS)NC(=O)C(CCC(N)=O)NC(=O)C(NC(=O)C(NC(=O)C(CO)NC(=O)C(NC(=O)C(CC(N)=O)NC(=O)C(NC(=O)C(CS)NC(=O)C1CCCN1C(=O)CNC(=O)C(NC(=O)CN)C(C)O)C(C)O)C(C)C)C(C)O)C(C)C)C(C)O)C(=O)NC(CCCN=C(N)N)C(N)=O` (stereo unspecified) (H-GTGPCTNVSTVQCTHGIR-NH2; configuration not given here), the pEC50 was < 4.30 and the pIC50 was < 4.30. Turning to `C#CCNC(=O)ON1C(=O)CCC1=O`, the pEC50 is < 2.90 and the pIC50 was < 2.90. `NS(=O)(=O)c1ccc(CNC(=O)c2ccccc2SC(=O)OCCCCCl)cc1` showed a negative-log EC50 (pEC50) of 5.33 and a pIC50 of 3.89. On the same counts, the results for `CCOC(=O)C(Br)=C1OC(=O)c2ccccc2-c2ccccc21` (mixture of isomers) are < 4.44 and < 4.44. As to `O=C(C(O)c1cn(Cc2ccccc2)c2ccccc12)N1CCCCC1` (stereo unspecified), the outcome was inactive. As for `COC1=C(C)C(=O)c2nc(Cl)ccc2C1=O`, the result was inactive. For the compound `COC(=O)c1cc(=O)[nH]c2c1c(=O)n(C)c(=O)n2C`, the pEC50 is < 3.70 and the negative-log IC50 (pIC50) is < 3.70. In the case of `Cc1cccc(C)c1N1C(=O)C(=O)C(c2nc3ccccc3s2)/C(=N/NC(=O)c2ccccc2O)C1=O` (stereo unspecified), the pEC50 was < 3.60 and the negative logarithm of the IC50 (pIC50) was 5.18.

For the compound `COc1ccc2c(c1)[n+](=O)c(C(=O)C/C(=N\NC(=O)C[N+](C)(C)C)C(=O)Nc1cc(Cl)ccc1Cl)c(C)n2O`, the pEC50 is < 5.91 and the pIC50 is < 5.91. With `CCOC(=O)/C(C#N)=C/c1ccc(N(C)C)cc1`, the pEC50 is < 4.11 and the pIC50 was < 4.11. As to `Cn1c(CC(O)(C(F)(F)F)C(F)(F)F)c(C(O)(C(F)(F)F)C(F)(F)F)c2ccccc21`, the pEC50 was < 3.70 and the negative logarithm of the IC50 (pIC50) is 5.47. For the compound `CNC(=O)NCCCCC(NC(=O)OCc1ccccc1)C(=O)OCc1ccccc1` (stereo unspecified), the pEC50 was < 4.08 and the pIC50 was 4.22. On to `COC(=O)c1c2c(cc3c1CC1(C3)Cc3cc4c(c(C(C)=O)c3C1)CCC4)C=CC2` (stereo unspecified), for which the pEC50 was < 3.70 and the negative-log IC50 (pIC50) is < 3.70.

On to `CC(/C=C/C(=O)c1sc(C(N)=S)nc1C)=C\c1ccccc1`, for which the pEC50 is < 4.10 and the negative-log IC50 (pIC50) was < 4.10. On to `c1cncc(-c2nc3sc(-c4cccnc4)nc3s2)c1`, for which the result was inactive.

On to `O=C1/C(=C\c2cccc(Oc3ccccc3)c2)S(=O)(=O)C(c2ccccc2)N1Cc1ccccc1` (stereo unspecified), for which the pEC50 is < 4.70 and the pIC50 is < 4.70. Turning to `CCOc1ncnc2c1ncn2C1OC(CO)CC1F` (stereo unspecified), the pEC50 was < 3.75 and the pIC50 is < 3.75. With `CS(=O)(=O)c1cnnc2ccccc12`, the pEC50 is < 3.29 and the negative logarithm of the IC50 (pIC50) was < 3.29. Regarding `C=CCCCC[P+](c1ccccc1)(c1ccccc1)c1ccccc1`, the pEC50 is < 4.70 and the negative-log IC50 (pIC50) was 5.84. On to `O=C(N=Nc1c(O)[nH]c2ccccc12)c1ccccc1O`, for which the pEC50 is < 4.60 and the negative-log IC50 (pIC50) was 4.81.

Regarding `CCOC(=O)C(C(C)=O)C(c1ccc(N(C)C)cc1)C(C(C)=O)C(=O)OCC` (stereo unspecified), the pEC50 is < 3.70 and the pIC50 was < 3.70. For the compound `Cc1cccc(C)c1N1C(=O)C(=O)C(c2nc3ccccc3s2)/C(=N\N)C1=O` (stereo unspecified), the outcome was inactive. Consider `CC1=NN(c2ccccc2)C(=O)/C1=C1\SC(c2ccccc2)(c2ccccc2)c2ccccc21`, for which the pEC50 was < 3.70 and the pIC50 was < 3.70.

With `Cc1cc(O)c(/C=N/C(=S)Nc2cc(Cl)ccc2Cl)c(=O)o1`, the pEC50 is < 4.30 and the negative logarithm of the IC50 (pIC50) is < 4.30.

On to `CCN(CC)c1ccc2cc(-c3nc4ccccc4s3)c(=O)oc2c1`, for which the pEC50 was < 4.69 and the pIC50 was < 4.69. As to `COc1ccc(C(c2ccccc2C(=O)O)c2ccc(OC)c3ccccc23)c2ccccc12`, the pEC50 is < 4.38 and the pIC50 was 4.97. `CC1(c2ccc3ccccc3c2)OC(=O)c2ccccc21` (stereo unspecified): the result was inactive.
